Values after ≈ are worked out from the molar mass of the structure shown. Active and inactive are the calls of the source. No cut-off for these calls is given here.
Legend:
[1] = tested on: Pichia kudriavzevii; experiment: Minimum fungicidal concentration required for antifungal activity against Issatchenkia orientalis DSM 6128 strain; type: functional
[2] = Ratio of MFC99/MIC for antifungal activity against Candida glabrata DSM 6425 strain was determined; type: functional
[3] = Ratio of MFC99/MIC for antifungal activity against Cryptococcus neoformans DSM 70219 strain was determined; type: functional
[4] = tested on: Pichia kudriavzevii; experiment: Minimum inhibitory concentration required for antifungal activity against Issatchenkia orientalis DSM 6128 strain; type: functional
[5] = Ratio of MFC99/MIC for antifungal activity against Candida albicans ATCC 10231 strain was determined; type: functional
[6] = tested on: Candida albicans; experiment: Minimum inhibitory concentration required for antifungal activity against Candida albicans ATCC 10231 strain; type: functional
[7] = tested on: Nakaseomyces glabratus; experiment: Minimum fungicidal concentration required for antifungal activity against Candida glabrata DSM 6425 strain; type: functional
[8] = tested on: Candida tropicalis; experiment: Minimum fungicidal concentration required for antifungal activity against Candida tropicalis DSM 1346 strain; type: functional
[9] = tested on: Nakaseomyces glabratus; experiment: Minimum inhibitory concentration required for antifungal activity against Candida glabrata DSM 6425 strain; type: functional
[10] = tested on: Cryptococcus neoformans; experiment: Minimum fungicidal concentration required for antifungal activity against Cryptococcus neoformans DSM 70219 strain; type: functional
[11] = Ratio of MFC99/MIC for antifungal activity against Issatchenkia orientalis DSM 6128 strain was determined; type: functional
[12] = tested on: Candida albicans; experiment: Minimum fungicidal concentration required for antifungal activity against Candida albicans ATCC 10231 strain; type: functional
[13] = Ratio of MFC99/MIC for antifungal activity against Candida tropicalis DSM 1346 strain was determined; type: functional
[14] = tested on: Candida tropicalis; experiment: Minimum inhibitory concentration required for antifungal activity against Candida tropicalis DSM 1346 strain; type: functional
[15] = tested on: Cryptococcus neoformans; experiment: Minimum inhibitory concentration required for antifungal activity against Cryptococcus neoformans DSM 70219 strain; type: functional
[16] = tested on: Salmonella typhimurium; experiment: Antibacterial activity against gram-negative bacteria Salmonella ser. Typhimurium; No effect; type: functional, organism-based; conditions: Salmonella enterica subsp. enterica serovar Typhimurium
[17] = tested on: Enterococcus faecalis; experiment: Antibacterial activity against gram-positive bacteria Enterococcus faecalis ATCC 29212; No effect; type: functional, organism-based
[18] = tested on: Pseudomonas aeruginosa; experiment: Antibacterial activity against gram-negative bacteria Pseudomonas aeruginosa ATCC 27853; No effect; type: functional, organism-based
[19] = tested on: Salmonella enterica; experiment: Antibacterial activity against gram-negative bacteria S. choleraesuis; No effect; type: functional, organism-based
[20] = tested on: Staphylococcus aureus; experiment: Antibacterial activity against gram-positive bacteria Staphylococcus aureus ATCC 9144; No effect; type: functional, organism-based
[21] = tested on: Escherichia coli; experiment: Antibacterial activity against gram-negative bacteria Escherichia coli ATCC 25922; No effect; type: functional, organism-based
[22] = tested on: Streptococcus pyogenes; experiment: Antibacterial activity against gram-positive bacteria Streptococcus pyogenes ATCC 19165; No effect; type: functional, organism-based
[23] = tested on: Proteus mirabilis; experiment: Antibacterial activity against gram-negative bacteria Proteus mirabilis CIP 1031811; No effect; type: functional, organism-based
[24] = tested on: Klebsiella pneumoniae; experiment: Antibacterial activity against gram-negative bacteria K. pneumoniae; No effect; type: functional, organism-based
[25] = tested on: Listeria monocytogenes; experiment: Antibacterial activity against gram-positive bacteria Listeria monocytogenes CIP 82110T; No effect; type: functional, organism-based

| SMILES | MFC99 [1] [µg/mL] | Ratio [2] | Ratio [3] | MIC [4] [µg/mL] | MIC [6] [µg/mL] | MFC99 [7] [µg/mL] | MFC99 [8] [µg/mL] | MIC [9] [µg/mL] | MFC99 [10] [µg/mL] | MFC99 [12] [µg/mL] | Activity [16] | Activity [17] | Activity [18] | Activity [19] | Activity [20] | Activity [21] | Activity [22] | Activity [23] | Activity [24] | Activity [25] | also measured |
| --- | --- | --- | --- | --- | --- | --- | --- | --- | --- | --- | --- | --- | --- | --- | --- | --- | --- | --- | --- | --- | --- |
| Clc1nss/c1=N\c1ccccc1 | 16 (≈ 70 µM) | 1 | 1 | 16 (≈ 70 µM) | 16 (≈ 70 µM) | 16 (≈ 70 µM) | 16 (≈ 70 µM) | 16 (≈ 70 µM) | 8 (≈ 35 µM) | 16 (≈ 70 µM) |  |  |  |  |  |  |  |  |  |  | Ratio [5]: 1; Ratio [11]: 1; Ratio [13]: 1; MIC [14]: 16 µg/mL (≈ 70 µM); MIC [15]: 8 µg/mL (≈ 35 µM) |
| COc1cc2nc(C#N)nc(OC(C)C)c2cc1OC |  |  |  |  |  |  |  |  |  |  | inactive | inactive | inactive | inactive | inactive | inactive | inactive | inactive | inactive | inactive |  |
| COc1cc2nc(C#N)nc(OC)c2cc1OC |  |  |  |  |  |  |  |  |  |  | inactive | inactive | inactive | inactive | inactive | inactive | inactive | inactive | inactive | inactive |  |
| COc1cc2nc(C#N)oc(=O)c2cc1OC |  |  |  |  |  |  |  |  |  |  | inactive | inactive | inactive | inactive | inactive | inactive | inactive | inactive | inactive | inactive |  |
| COC(=O)c1cc(OC)c(OC)cc1/N=c1\ssnc1Cl | 48 (≈ 138 µM) | 3 | 1.5 | 32 (≈ 92.3 µM) | 32 (≈ 92.3 µM) | 48 (≈ 138 µM) | >48 | 16 (≈ 46.1 µM) | 48 (≈ 138 µM) | 48 (≈ 138 µM) |  |  |  |  |  |  |  |  |  |  | Ratio [5]: 1.5; Ratio [11]: 1.5; MIC [14]: 48 µg/mL (≈ 138 µM); MIC [15]: 32 µg/mL (≈ 92.3 µM) |
| Clc1nss/c1=N\c1ccc2c(c1)OCCO2 | >48 | 3 | 1 | 48 (≈ 167 µM) | 32 (≈ 112 µM) | 48 (≈ 167 µM) | >48 | 16 (≈ 55.8 µM) | 16 (≈ 55.8 µM) | 48 (≈ 167 µM) |  |  |  |  |  |  |  |  |  |  | Ratio [5]: 1.5; MIC [14]: 48 µg/mL (≈ 167 µM); MIC [15]: 16 µg/mL (≈ 55.8 µM) |
| N#Cc1ccccc1/N=c1\ssnc1Cl | 16 (≈ 63.1 µM) | 1 | 1 | 16 (≈ 63.1 µM) | 16 (≈ 63.1 µM) | 16 (≈ 63.1 µM) | 16 (≈ 63.1 µM) | 16 (≈ 63.1 µM) | 16 (≈ 63.1 µM) | 16 (≈ 63.1 µM) |  |  |  |  |  |  |  |  |  |  | Ratio [5]: 1; Ratio [11]: 1; Ratio [13]: 1; MIC [14]: 16 µg/mL (≈ 63.1 µM); MIC [15]: 16 µg/mL (≈ 63.1 µM) |
| COc1ccc(/N=c2\ssnc2Cl)cc1 | 16 (≈ 61.8 µM) | 1 | 1 | 16 (≈ 61.8 µM) | 16 (≈ 61.8 µM) | 16 (≈ 61.8 µM) | 16 (≈ 61.8 µM) | 16 (≈ 61.8 µM) | 8 (≈ 30.9 µM) | 16 (≈ 61.8 µM) |  |  |  |  |  |  |  |  |  |  | Ratio [5]: 1; Ratio [11]: 1; Ratio [13]: 1; MIC [14]: 16 µg/mL (≈ 61.8 µM); MIC [15]: 8 µg/mL (≈ 30.9 µM) |
| COC(=O)c1ccccc1/N=c1\ssnc1Cl | 32 (≈ 112 µM) | 2 | 1 | 16 (≈ 55.8 µM) | 16 (≈ 55.8 µM) | 32 (≈ 112 µM) | 16 (≈ 55.8 µM) | 16 (≈ 55.8 µM) | 32 (≈ 112 µM) | 16 (≈ 55.8 µM) |  |  |  |  |  |  |  |  |  |  | Ratio [5]: 1; Ratio [11]: 2; Ratio [13]: 1; MIC [14]: 16 µg/mL (≈ 55.8 µM); MIC [15]: 32 µg/mL (≈ 112 µM) |
| N#Cc1nc2ccccc2c(=O)s1 |  |  |  |  |  |  |  |  |  |  | inactive | inactive | inactive | inactive | inactive | inactive | inactive | inactive | inactive | inactive |  |
| OC(Cn1cncn1)(Cn1cncn1)c1ccc(F)cc1F [FLUCONAZOLE] | 64 (≈ 209 µM) | >32 | >32 | 16 (≈ 52.2 µM) | 2 (≈ 6.53 µM) | >128 | >128 | 4 (≈ 13.1 µM) | >128 | >128 |  |  |  |  |  |  |  |  |  |  | Ratio [5]: >64; Ratio [11]: 4; Ratio [13]: >32; MIC [14]: 4 µg/mL (≈ 13.1 µM); MIC [15]: 4 µg/mL (≈ 13.1 µM) |
| CCOc1nc(C#N)nc2cc(OC)c(OC)cc12 |  |  |  |  |  |  |  |  |  |  | inactive | inactive | inactive | inactive | inactive | inactive | inactive | inactive | inactive | inactive |  |
| CCSc1nc(C#N)nc2cc(OC)c(OC)cc12 |  |  |  |  |  |  |  |  |  |  | inactive | inactive | inactive | inactive | inactive | inactive | inactive | inactive | inactive | inactive |  |
| N#Cc1nc2ccccc2c(=O)o1 |  |  |  |  |  |  |  |  |  |  | inactive | inactive | inactive | inactive | inactive | inactive | inactive | inactive | inactive | inactive |  |
| CCOc1nc(C#N)nc2ccccc12 |  |  |  |  |  |  |  |  |  |  | inactive | inactive | inactive | inactive | inactive | inactive | inactive | inactive | inactive | inactive |  |
| N#Cc1nc2cc(Cl)ccc2c(=O)s1 |  |  |  |  |  |  |  |  |  |  | inactive | inactive | inactive | inactive | inactive | inactive | inactive | inactive | inactive | inactive |  |
| N#Cc1nc2cc(Cl)ccc2c(=O)o1 |  |  |  |  |  |  |  |  |  |  | inactive | inactive | inactive | inactive | inactive | inactive | inactive | inactive | inactive | inactive |  |
| COc1nc(C#N)nc2ccccc12 |  |  |  |  |  |  |  |  |  |  | inactive | inactive | inactive | inactive | inactive | inactive | inactive | inactive | inactive | inactive |  |
| CCCCOc1nc(C#N)nc2cc(OC)c(OC)cc12 |  |  |  |  |  |  |  |  |  |  | inactive | inactive | inactive | inactive | inactive | inactive | inactive | inactive | inactive | inactive |  |
| Nc1nc(=O)[nH]cc1F [FLUCYTOSINE] | 64 (≈ 496 µM) | 5 | >64 | 16 (≈ 124 µM) | 0.13 (≈ 1.01 µM) | 0.25 (≈ 1.94 µM) | 0.25 (≈ 1.94 µM) | 0.05 (≈ 0.387 µM) | >128 | 4 (≈ 31 µM) |  |  |  |  |  |  |  |  |  |  | Ratio [11]: 4; Ratio [13]: 5; MIC [14]: 0.1 µg/mL (≈ 0.775 µM); MIC [15]: 2 µg/mL (≈ 15.5 µM) |
| COc1cc2nc(C#N)sc(=O)c2cc1OC |  |  |  |  |  |  |  |  |  |  | inactive | inactive | inactive | inactive | inactive | inactive | inactive | inactive | inactive | inactive |  |
| COc1cc(C#N)c(/N=c2\ssnc2Cl)cc1OC | 48 (≈ 153 µM) | 1.5 | 1 | 32 (≈ 102 µM) | 32 (≈ 102 µM) | 48 (≈ 153 µM) | >48 | 32 (≈ 102 µM) | 32 (≈ 102 µM) | 32 (≈ 102 µM) |  |  |  |  |  |  |  |  |  |  | Ratio [5]: 1; Ratio [11]: 1.5; MIC [14]: 48 µg/mL (≈ 153 µM); MIC [15]: 32 µg/mL (≈ 102 µM) |

Reference: ChEMBL document CHEMBL1129179, “Antimicrobial evaluation of 3,1-benzoxazin-4-ones, 3,1-benzothiazin-4-ones, 4-alkoxyquinazolin-2-carbonitriles and N-arylimino-1,2,3-dithiazoles” (1996)
